From patent EP2157088A1, “INDICYANINE DYES AND THE DERIVATIVES THEREOF FOR ANALYSING BIOLOGICAL MICROMOLECULES” (UCHREZHDENIE ROSSIISKOI AKADEMII NAUK INSTITUT …, priority 2007, dated 2008)

Legend:
[1] = format: physicochemical
Text: Subject to substituent at the heterocyclic moiety, dyes of formulae (A) and (B) proposed are distinguished by a spectral range of excitation and fluorescence, by the total electrical charge, and water solubility (Table 1).

[2] = Molar extinction coefficient in methanol and PBS; format: physicochemical; parameters: ε·10^-5: unit not given here
Method: For all indodicarbocyanine dyes (I) (A1) - (A30) and (B1) - (B7) of the invention, there are determined the molar extinction coefficients in methanol and in aqueous phosphate buffered saline (PBS) (10 mM potassium phosphate buffer, sodium chloride concentration is 0.9%, pH 7.4). In methanol, indodicarbocyanine (A1, A8, A10-A12, A17, A23) has the upper-range of molar extinction coefficient (ε >[…]). In aqueous phosphate buffered saline (PBS), dyes (A10, A23, A30) have the maximal ε-value (Fig. 2).

[3] = Relative efficiency of fluorescence / absolute sensitivity of label, normalized to dye A30 in PBS; format: physicochemical; conditions: for Sensitivity of record 635/ 670: excitation 635 nm, record 670 nm; for Sensitivity of record 655/ 690: excitation 655 nm, record 690 nm; for Sensitivity of record max/ max: excitation and record in absorption and fluorescence maxima, ε*Φ normalized to A30 in PBS
Text: The data obtained were as follows: • on excitation and record in absorption and fluorescence maxima, the relative efficiency of fluorescence exceeds 0.80 for dyes (A10), (A22), (A23), (A25), and (A30) in methanol and for dyes (A22), (A25), and (A30) in PBS (Table 1, Fig. 4), whereas for dyes of formula (I) (R1 = -CH3, R2= R6= -SO3^-; R3= -(CH2)5COOH, R4= -C2H5; R5= -H) the values are 0.69 in methanol and 0.67 in PBS; • on excitation at wavelength 655 nm and record at 690 nm, the relative efficiency of fluorescence exceeds 0.25 for dyes (A25) and (A30) in methanol and is higher than 0.18 for dyes (A24) and (A30) in PBS (Table 1, Fig. 5), whereas for dyes of formula (I) (R1 = -CH3, R2 = R6= -SO3^-; R3= -(CH2)5COOH, R4= -C2H5; R5= -H) the values are 0.18 in methanol and 0.11 in PBS; • on excitation at wavelength 635 nm and record at 670 nm, the relative efficiency of fluorescence exceeds 0.50 for dyes (A1), (A11), (A23) in methanol and is higher than 0.45 for dyes (A22), (A25), and (A30) in PBS (Table 1, Fig. 6), whereas for dyes of formula (I) (R1= -CH3, R2= R6= -SO3^-; R3= -(CH2)5COOH, R4= -C2H5; R5= -H) the values are 0.44 in methanol and 0.38 in PBS.
Term sensitivity of fluorescent analysis is defined by the absolute sensitivity of label that may be represented as the product of molar extinction coefficient by quantum efficiency of fluorescence (ε*Φ). Thus, there are determined the absolute sensitivity of indodicarbocyanines (A1-A30, B1-B7) in appropriate absorption and fluorescence maxima in methanol and in aqueous phosphate buffered saline. The values are normalized to the maximal value obtained for dye (A30) in PBS (Table 1). In methanol, dyes (A10, A22, A23, A25, A30) have the upper-range of absolute sensitivity, but in PBS, dyes (A10, A22, A25, A29, A30) have the maximal values of sensitivity (Fig. 4).
To determine the most appropriate dyes for instrument setting, there are measured the relative efficiency of fluorescence of dyes at wavelength of excitation and record of the instrument (655 nm. / 690 nm). The maximal values appear to be specific to dyes (A25) and (A30) in methanol, and to dyes (A19, A22, A25, A29, A30) in PBS (Table 1, Fig. 5).
There are also measured the relative efficiency of fluorescence at wavelength of excitation and record of the instrument (635 nm / 670 nm). The maximal values appear to be specific to dyes (A1, A10, A11, A23) in methanol, and to dyes (A10, A22, A25, A29, A30) in PBS (Table 1, Fig. 6).

[4] = Quantum efficiency of fluorescence, measured versus a reference dye; format: physicochemical
Method: For all indodicarbocyanine dyes (I) (A1) - (A30) and (B1) - (B7) of the invention, there are determined the quantum efficiency of fluorescence in methanol and in aqueous phosphate buffered saline (Table 1, Fig. 3). The measurements are performed versus dyes of formula (I) (R1= -CH3, R2= R6= -SO3^-; R3= -(CH2)5COOH, R4= -C2H5, R5= -H) whose quantum efficiency of fluorescence in PBS is 0.27 (Mader O., K. Reider, H.-J. Egelhaaaf, R, Fischer, R. Brock, Structure Properties of Pentamethine Indocyanine Dyes: Identification of New Dyes for Life Science Applications. Bioconjugate Chem, 2004, vol. 15, pp. 70-78). In methanol, dyes (A10, A22, A25, A29, A30) have the upper-range of quantum efficiency of fluorescence (Φ ∼ 0.3), but in PBS, dyes (A10, A22, A25, A29, A30) have the maximal Φ -value.

[5] = Absorption and fluorescence maxima of the dyes; format: physicochemical
Text: An insertion of methyl group at 5- and 7-positions of indolenyne cycle produces a bathochromic shift in the absorption and fluorescent spectra. As to the rest sulfur containing dyes, the spectral characteristics thereof appear to be in the same range (between about λmax 648 nm and λem 669 nm) (Fig. 1),

[6] = PBS (10 mM potassium phosphate buffer, 0.9% sodium chloride, pH 7.4)

| Compound | water solubility [1] | ε·10^-5 ([2]; MeOH) | ε·10^-5 [2, 6] | Sensitivity of record 635/ 670 ([3]; MeOH) | Sensitivity of record 655/ 690 ([3]; MeOH) | Sensitivity of record max/ max ([3]; MeOH) | Sensitivity of record 635/ 670 ([3]; PBS) | Sensitivity of record 655/ 690 ([3]; PBS) | Sensitivity of record max/ max ([3]; PBS) | Φ (quantum efficiency of fluorescence) ([4]; MeOH) | Φ (quantum efficiency of fluorescence) ([4]; PBS) | λmax^abs ([5]; MeOH) | λmax^em ([5]; MeOH) | λmax^abs ([5]; PBS) | λmax^em ([5]; PBS) | molar extinction coefficient (ε) ([2]; in methanol) |
| --- | --- | --- | --- | --- | --- | --- | --- | --- | --- | --- | --- | --- | --- | --- | --- | --- |
| CC1(C)C(=CC=CC=CC2=[N+](CCCCS(=O)(=O)[O-])c3ccc(CCC(=O)O)cc3C2(C)C)N(CCCCS(=O)(=O)[O-])c2ccc(S(=O)(=O)[O-])cc21.[Na+].[Na+] [B7, N,N'-disulfobutyl-5-carboxyethyl-5'-sulfo-3,3,3',3'-tetramethylindodicarbocyanine, disodium salt] | very good water solubility | – | – | – | – | – | – | – | – | – | – | – | – | – | – | – |
| CCN1/C(=C/C=C/C=C/C2=[N+](CC)c3ccccc3C2(C)C)C(C)(CCCCC(=O)O)c2cc(S(=O)(=O)[O-])ccc21 (stereo not shown) [A9, N,N'-diethyl-3-(4-carboxybutyl)-5-sulfo-3,3',3'-trimethylindodicarbocyanine] | – | 2.07±0.03 | 1.91±0.02 | 0.424 | 0.124 | 0.627 | 0.229 | 0.052 | 0.385 | 0.23 | 0.15 | 648 nm | 663 nm | 646 nm | 659 nm | – |
| CC[N+]1=C(/C=C/C=C/C=C2/N(CCCCS(=O)(=O)[O-])c3ccccc3C2(C)CCCCC(=O)O)C(C)(C)c2cc(C)cc(C)c21 (stereo not shown) [A3, 3-(4-Carboxybutyl)-3,3',3',5',7'-pentamethyl-N-(4-sulfobutyl)-N'-ethylindodicarbocyanine] | – | 1.93±0.01 | 1.84±0.01 | 0.210 | 0.138 | 0.314 | 0.132 | 0.069 | 0.199 | 0.12 | 0.08 | 652 nm | 670 nm | 650 nm | 665 nm | – |
| 5,5'-disulfo-N,N'-di(4-sulfobutyl)-3-(4-carboxybutyl)-3,3',3'-trimethylindodicarbocyanine, trisodium salt [A30] | very good water solubility | – | – | – | – | – | – | – | – | ~0.3 | – | – | – | – | – | – |
| CCN1/C(=C/C=C/C=C/C2=[N+](CC)c3ccc(S(=O)(=O)[O-])cc3C2(C)C)C(C)(CCCCC(=O)O)c2ccccc21 (stereo not shown) [A7, N,N'-diethyl-3-(4-carboxybutyl)-5'-sulfo-3,3',3'-trimethylindodicarbocyanine] | – | 1.78±0.02 | 1.80±0.03 | 0.359 | 0.102 | 0.514 | 0.207 | 0.049 | 0.353 | 0.23 | 0.14 | 647 nm | 660 nm | 646 nm | 663 nm | – |
| CC[N+]1=C(C=CC=CC=C2N(CCCCS(=O)(=O)[O-])c3ccccc3C2(C)C)C(C)(CCCCC(=O)O)c2ccccc21 (stereo not shown) [A8, 3-(4-carboxybutyl)-N'-(4-sulfobutyl)-3,3',3'-trimethyl-N-ethylindodicarbocyanine] | – | 2.20±0.02 | 2.13±0.02 | 0.493 | 0.134 | 0.730 | 0.262 | 0.054 | 0.433 | 0.26 | 0.15 | 647 nm | 662 nm | 646 nm | 660 nm | > 220000 M⁻¹ cm⁻¹ |
| CC[N+]1=C(/C=C/C=C/C=C2/N(CCCCS(=O)(=O)[O-])c3ccccc3C2(C)CCCCC(=O)O)C(C)(C)c2cc(C)ccc21 (stereo not shown) [A2, 3-(4-Carboxybutyl)-N-(4-sulfobutyl)-3,3',3',5'-tetramethyl-N'-ethylindodicarbocyanine] | – | 2.01±0.01 | 1.99±0.03 | 0.320 | 0.149 | 0.442 | 0.184 | 0.068 | 0.261 | 0.17 | 0.09 | 649 nm | 667 nm | 647 nm | 662 nm | – |
| CCN1C(=CC=CC=CC2=[N+](CCCCS(=O)(=O)[O-])c3ccc(C)cc3C2(C)CCCCC(=O)O)C(C)(C)c2ccccc21 (stereo not shown) [A4, 3-(4-Carboxybutyl)-N-(4-sulfobutyl)-3,3',3',5-tetramethyl-N'-ethylin:dodicarbpcyanine] | – | 2.14±0.03 | 2.1 ± 0.03 | 0.243 | 0.143 | 0.381 | 0.162 | 0.054 | 0.255 | 0.14 | 0.10 | 651 nm | 668 nm | 649 nm | 665 nm | – |
